Where two headings read alike, the source gives them in different places.
Key:
[1] = Thymol quantification in egg yolk (HS-SPME/GC-MS) during chronic dietary supplementation; type: in vivo, Coturnix japonica; conditions: for concentration at 2 days of supplementation / concentration at 9 days of supplementation / concentration at 16 days of supplementation / concentration at 26 days of supplementation / concentration at 17 days after supplement withdrawal: female, Japanese quail (Coturnix japonica), egg yolk, oral, read-out: THY concentration in egg yolk
Description: A total of 50 eighty-five days-old female quail of homogeneous body weights (251 ± 1 g; Mean ± SE) and in their egg-laying peak were selected from an initial group of 96 female individuals. All birds continued receiving a basal diet between 85 and 100 days of age and all variables (see below for details) were registered along this period (Pre-supplementation period, Fig 1). From 100 to 128 days of age (S period, Fig 1), females were randomly assigned to either a chronic dietary supplementation with one of 3 THY doses (THY2, THY4 and THY6; 10 females each) or to one of 2 control groups (basal diet, BASAL, and basal diet with vehicle solution, VEHICLE; 10 females each). Once finished the S period, half of the quail were slaughtered for histological analysis (n = 25; Slaughter 1, Fig 1) and the other half were subjected to a pS period of 21 days, during which all females received the BASAL diet (pS, Fig 1). After this period, the remaining 25 animals were also slaughtered for histological analysis (Slaughter 2, Fig 1). In this way, we assessed whether THY induced changes in variables indicative of tissue damage and if so, whether the potential damages could reverse after 3 weeks of supplement withdrawal.
To assess changes in egg yolk total FA composition, egg physical characteristics, laying rate, body weight, feed intake and general welfare, during the S and pS periods, five sampling points were defined (Sample points, Fig 1): one initial sample point (at 0 days of S); three sample points during the S period (at 7, 14 and 28 days of S); and one sample point at the end of the pS period (21 days of pS). It should be noted that for determinations of THY concentration, eggs and quail droppings were collected offset from the other variables measured by 2 days, thus were collected on days 2, 9, 16, and 26 days of S, and 17 days of pS, respectively.
Thymol was commercially obtained from Sigma-Aldrich (SAFC®, ⩾99%; FCC, Saint Louis, MO, USA). Supplemented quail were provided 2, 4 or 6.25 g of THY per kg of feed. For this end, THY was prepared in a 2.4, 4.8 and 7.5% w/v ethanolic solution and uniformly sprayed on fresh feed. The feed was prepared and administrated daily, to minimize THY volatilization from feed before its consumption by females. The doses were selected considering two factors. The first, the concentration range for which the transfer of THY to the chicken and/or quail egg has been established. Second, the concentrations of THY supplementation that have shown biological effects. […] In this context, THY4 is and intermediate dose between the last two. Nutrient and FA compositions of the diets supplied were identical between each other and are reported in S1, S2 and S3 Tables, and are in accordance with the National Research Council recommendation.
Egg yolks and droppings of each female were obtained at each sample point (Sample points, Fig 1) and THY concentration was immediately measured by head space-solid phase microextraction followed by gas chromatography-mass spectrometry (HS-SPME/GC-MS) according to Fernandez et al.. SPME was performed with a manual holder with 100 um polydimethylsiloxane (PDMS) fiber. An aliquot of egg yolk (3 g), droppings (5 g) or feed (5 g) was put in a sealed 20 mL glass vial, spiked at the corresponding level with the standard m-cresol (Sigma-Aldrich; ≥ 99% (GC); Saint Louis, MO, USA) stock solution, and vortexed for 5 min. The vials were placed in a water bath and the PDMS fiber was exposed to the headspace for 30 min at 60°C and 5 min at 40°C for egg yolk and droppings or feed, respectively. The fiber was then inserted directly into the GC injector for desorption at 250°C for 10 min in splitless mode. Chromatography analysis was carried out in a Perkin Elmer Clarus 600 equipped with a PSSI injector and a quadrupole MS detector (Perkin Elmer, USA). Turbo Mass 5.4.2 software was used to control and acquire data from GC–MS. […]

quail = tested on: quail; set-up: method as in PMID 28474397; conditions: THY6, 6.25 g of THY per kg of feed; cited from earlier work

Cc1ccc(C(C)C)c(O)c1 [THY, 2 isopropyl-5-methylphenol]
Percentage of THY transferred to egg yolk in relation to the amount ingested ([1]; THY2, 2 g of thymol/kg of feed, 2 days of S): 0.02%
Percentage of THY transferred to egg yolk in relation to the amount ingested ([1]; THY2, 2 g of thymol/kg of feed, 9 days of S): 0.23%
Percentage of THY transferred to egg yolk in relation to the amount ingested ([1]; THY2, 2 g of thymol/kg of feed, 16 days of S): 0.22%
Percentage of THY transferred to egg yolk in relation to the amount ingested ([1]; THY2, 2 g of thymol/kg of feed, 26 days of S): 0.25%
Percentage of THY transferred to egg yolk in relation to the amount ingested ([1]; THY2, 2 g of thymol/kg of feed, pS, 17 days of supplement withdrawal): 0.03%
Percentage of THY transferred to egg yolk in relation to the amount ingested ([1]; THY4, 4 g of thymol/kg of feed, 2 days of S): 0.01%
Percentage of THY transferred to egg yolk in relation to the amount ingested ([1]; THY4, 4 g of thymol/kg of feed, 9 days of S): 0.17%
Percentage of THY transferred to egg yolk in relation to the amount ingested ([1]; THY4, 4 g of thymol/kg of feed, 16 days of S): 0.17%
Percentage of THY transferred to egg yolk in relation to the amount ingested ([1]; THY4, 4 g of thymol/kg of feed, 26 days of S): 0.16%
Percentage of THY transferred to egg yolk in relation to the amount ingested ([1]; THY4, 4 g of thymol/kg of feed, pS, 17 days of supplement withdrawal): 0.02%
Percentage of THY transferred to egg yolk in relation to the amount ingested ([1]; THY6, 6.25 g of thymol/kg of feed, 2 days of S): 0.02%
Percentage of THY transferred to egg yolk in relation to the amount ingested ([1]; THY6, 6.25 g of thymol/kg of feed, 9 days of S): 0.14%
Percentage of THY transferred to egg yolk in relation to the amount ingested ([1]; THY6, 6.25 g of thymol/kg of feed, 16 days of S): 0.13%
Percentage of THY transferred to egg yolk in relation to the amount ingested ([1]; THY6, 6.25 g of thymol/kg of feed, 26 days of S): 0.13%
Percentage of THY transferred to egg yolk in relation to the amount ingested ([1]; THY6, 6.25 g of thymol/kg of feed, pS, 17 days of supplement withdrawal): 0.03%
THY transferred to the egg yolk, of the amount THY ingested ([1]; during the plateau, across THY2, THY4, THY6): 0.13–0.25%
highest concentration of THY detected in egg yolk, molar equivalent ([1]; equivalent of 406 ng/g of egg yolk): ~ 3.05 uM
concentration at 2 days of supplementation ([1]; 2 g/kg of feed, THY2, 2 g of thymol/kg of feed, 2 days of S): 12.5 ng/g
concentration at 9 days of supplementation ([1]; 2 g/kg of feed, THY2, 2 g of thymol/kg of feed, 9 days of S): 156 ng/g
concentration at 16 days of supplementation ([1]; 2 g/kg of feed, THY2, 2 g of thymol/kg of feed, 16 days of S): 150 ng/g
concentration at 26 days of supplementation ([1]; 2 g/kg of feed, THY2, 2 g of thymol/kg of feed, 26 days of S): 169 ng/g
concentration at 17 days after supplement withdrawal ([1]; 2 g/kg of feed, THY2, 2 g of thymol/kg of feed, pS, 17 days of supplement withdrawal): 17.9 ng/g
concentration at 2 days of supplementation ([1]; 4 g/kg of feed, THY4, 4 g of thymol/kg of feed, 2 days of S): 26.1 ng/g
concentration at 9 days of supplementation ([1]; 4 g/kg of feed, THY4, 4 g of thymol/kg of feed, 9 days of S): 297 ng/g
concentration at 16 days of supplementation ([1]; 4 g/kg of feed, THY4, 4 g of thymol/kg of feed, 16 days of S): 295 ng/g
concentration at 26 days of supplementation ([1]; 4 g/kg of feed, THY4, 4 g of thymol/kg of feed, 26 days of S): 282 ng/g
concentration at 17 days after supplement withdrawal ([1]; 4 g/kg of feed, THY4, 4 g of thymol/kg of feed, pS, 17 days of supplement withdrawal): 36.3 ng/g
concentration at 2 days of supplementation ([1]; 6.25 g/kg of feed, THY6, 6.25 g of thymol/kg of feed, 2 days of S): 42.9 ng/g
concentration at 9 days of supplementation ([1]; 6.25 g/kg of feed, THY6, 6.25 g of thymol/kg of feed, 9 days of S): 407 ng/g
concentration at 16 days of supplementation ([1]; 6.25 g/kg of feed, THY6, 6.25 g of thymol/kg of feed, 16 days of S): 372 ng/g
concentration at 26 days of supplementation ([1]; 6.25 g/kg of feed, THY6, 6.25 g of thymol/kg of feed, 26 days of S): 377 ng/g
concentration at 17 days after supplement withdrawal ([1]; 6.25 g/kg of feed, THY6, 6.25 g of thymol/kg of feed, pS, 17 days of supplement withdrawal): 69.5 ng/g
highest concentration of THY detected in egg yolk ([1]; highest of the study): ~406 ng/g of egg yolk
PUFA and SFA in yolk total fatty acids and triglycerides of the quail fertile egg (quail): enhances PUFA deposition to the detriment of SFA
